From patent US8188102B2, “Amide derivative for inhibiting the growth of cancer cells” (Hanmi Holdings Co., Ltd., priority 2007, dated 2012)

How the values were obtained:
[1] = test system: A431 skin cancer cell line; test: Cancer cell growth inhibition, A431 (SRB); conditions: Homo sapiens, A-431, 72 h, read-out: ID50 (nM) A431
[2] = test system: SK-Br3 breast cancer cell line; test: Cancer cell growth inhibition, SK-Br3 (SRB); conditions: Homo sapiens, SK-BR-3, 72 h, read-out: ID50 (nM) SK-Br3

With `C=CC(=O)N1CCC(Oc2cc3c(Nc4ccc(Oc5ccccc5)cc4)ncnc3cc2OC)CC1` [Example 48, 1-(4-(7-methoxy-4-(4-phenoxyphenylamino)quinazolin-6-yloxy)piperidin-1-yl)pro-2-pen-1-one] the IC50 [1] was over 1000 nM and the IC50 [2] was 8 nM.
In the case of `C=CC(=O)N1CCC(Oc2cc3c(Nc4ccc(OCc5cccc(F)c5)c(Cl)c4)ncnc3cc2OC)CC1` [Example 54, 1-(4-(4-(3-chloro-4-(3-fluorobenzyloxy)phenylamino)-7-methoxyquinazolin-6-yloxy)piperidin-1-yl)pro-2-pen-1-one], the IC50 [1] is reported as 10 nM and the IC50 [2] is reported as 2 nM.
In the case of `CNC(=O)/C=C/C(=O)N1CC(Oc2cc3c(Nc4ccc(F)c(Cl)c4F)ncnc3cc2OC)C1` [Example 28, (E)-4-(3-(4-(3-chloro-2,4-difluorophenylamino)-7-methoxyquinazolin-6-yloxy)azetidin-1-yl)-N-methyl-4-oxobut-2-ene amide], the IC50 [1] is reported as 41 nM and the IC50 [2] is reported as 262 nM.
Compound `C=CC(=O)N1CC[C@@H](Oc2cc3c(Nc4ccc(F)c(Cl)c4F)ncnc3cc2OC)C[C@@H]1C(=O)NO` [Example 137, (2R,4R)-1-acryloyl-4-(4-(3-chloro-2,4-difluorophenylamino)-7-methoxyquinazolin-6-yloxy)-N-hydroxypiperidin-2-carboxamide] has an IC50 [1] of 1.7 nM and an IC50 [2] of 1.3 nM.
In the case of `C=CC(=O)N1CCC(Oc2cc3c(Nc4cc(Cl)c(O)c(Cl)c4)ncnc3cc2OC)CC1` [Example 50, 1-(4-(4-(3,5-dichloro-4-hydroxyphenylamino)-7-methoxyquinazolin-6-yloxy)piperidin-1-yl)pro-2-pen-1-one], the IC50 [1] is reported as 179 nM and the IC50 [2] is reported as 91 nM.
Work on `C=CC(=O)N1CC(Oc2cc3c(Nc4ccc(F)c(Cl)c4F)ncnc3cc2O)C1` [Example 115, 1-(3-(4-(3-chloro-2,4-difluorophenylamino)-7-hydroxyquinazolin-6-yloxy)azetidin-1-yl)prop-2-en-1-one] yielded an IC50 [1] of 381 nM and an IC50 [2] of 93 nM.
`C=CC(=O)N1CC[C@H](Oc2cc3c(Nc4ccc(F)c(Cl)c4F)ncnc3cc2OC)C[C@H]1C(=O)NCCN1CCOCC1` [Example 132, (2S,4S)-1-acryloyl-4-(4-(3-chloro-2,4-difluorophenylamino)-7-methoxyquinazolin-6-yloxy)-N-(2-morpholinoethyl)piperidin-2-carboxamide] showed an IC50 [1] of 8.3 nM and an IC50 [2] of 0.5 nM.
Compound `COc1cc2ncnc(Nc3ccc(Cl)c(Cl)c3F)c2cc1OC1CCN(C(=O)/C=C/C(=O)O)CC1` [Example 87, (E)-4-(4-(4-(3,4-dichloro-2-fluorophenylamino)-7-methoxyquinazolin-6-yloxy)piperidin-1-yl)-4-oxobut-2-enoic acid] has an IC50 [1] of 516 nM and an IC50 [2] of 469 nM.
`CC#CC(=O)N1CC[C@H](Oc2cc3c(Nc4ccc(F)c(Cl)c4F)ncnc3cc2OC)C1` [Example 3, 1-((3S)-3-(4-(3-chloro-2,4-difluorophenylamino)-7-methoxyquinazolin-6-yloxy)pyrrolidin-1-yl)but-2-yn-1-one] was tested, and the IC50 [1] was 37 nM and the IC50 [2] was 1300 nM.
Work on `C=C(CN1CCN(C)CC1)C(=O)N1CC(Oc2cc3c(Nc4ccc(F)c(Cl)c4F)ncnc3cc2OC)C1` [Example 106, 1-(3-(4-(3-chloro-2,4-difluorophenylamino)-7-methoxyquinazolin-6-yloxy)azetidin-1-yl)-2-((4-methylpiperazin-1-yl)methyl)prop-2-en-1-one] yielded an IC50 [1] of 1 nM and an IC50 [2] of 0.5 nM.
`COc1cc2ncnc(Nc3ccc(Cl)c(Cl)c3F)c2cc1OC1CCN(C(=O)/C=C\C(=O)O)CC1` [Example 86, (Z)-4-(4-(4-(3,4-dichloro-2-fluorophenylamino)-7-methoxyquinazolin-6-yloxy)piperidin-1-yl)-4-oxobut-2-enoic acid] showed an IC50 [1] of 322 nM and an IC50 [2] of over 1000 nM.
`C=CC(=O)N1CCC(Oc2cc3c(Nc4cccc(Cl)c4OC)ncnc3cc2OC)CC1` [Example 59, 1-(4-(4-(3-chloro-2-methoxyphenylamino)-7-methoxyquinazolin-6-yloxy)piperidin-1-yl)pro-2-pen-1-one] showed an IC50 [1] of 3 nM and an IC50 [2] of 9 nM.
`C=CC(=O)N1CCC(Oc2cc3c(Nc4cccc([N+](=O)[O-])c4)ncnc3cc2OC)CC1` [Example 74, 1-(4-(7-methoxy-4-(3-nitrophenylamino)quinazolin-6-yloxy)piperidin-1-yl)pro-2-pen-1-one] gave an IC50 [1] of 11 nM and an IC50 [2] of 1 nM.
For `C=CC(=O)N1CC[C@@H](Oc2cc3c(Nc4ccc(F)c(Cl)c4F)ncnc3cc2OC)C[C@@H]1C(=O)O` [Example 134, (2R,4R)-1-acryloyl-4-(4-(3-chloro-2,4-difluorophenylamino)-7-methoxyquinazolin-6-yloxy)piperidin-2-carboxylic acid], the IC50 [1] was 979 nM and the IC50 [2] was 4 nM.
Compound `C=CC(=O)N1CC[C@@H](Oc2cc3c(Nc4ccc(F)c(Cl)c4)ncnc3cc2OC)C1` [Example 14] has an IC50 [2] of 128 nM.
Compound `C=CC(=O)N1CC[C@H](Oc2cc3c(Nc4ccc(F)c(Cl)c4F)ncnc3cc2OC)C[C@H]1C(=O)NCC` [Example 122, (2S,4S)-1-acryloyl-4-(4-(3-chloro-2,4-difluorophenylamino)-7-methoxyquinazolin-6-yloxy)-N-ethylpiperidin-2-carboxamide] has an IC50 [1] of 8 nM and an IC50 [2] of 2.3 nM.
`C=CC(=O)N1CC[C@H](Oc2cc3c(Nc4ccc(Br)cc4F)ncnc3cc2OC)C1` [Example 9, 1-((3S)-3-(4-(4-bromo-2-fluorophenylamino)-7-methoxyquinazolin-6-yloxy)pyrrolidin-1-yl)pro-2-pen-1-one] gave an IC50 [1] of 15 nM and an IC50 [2] of 58 nM.
With `C=CC(=O)N1CCC(Oc2cc3c(Nc4ccc(Cl)c(Cl)c4)ncnc3cc2OC)CC1` [Example 44, 1-(4-(4-(3,4-dichlorophenylamino)-7-methoxyquinazolin-6-yloxy)piperidin-1-yl)pro-2-pen-1-one] the IC50 [2] was 2 nM.
Work on `C=CC(=O)N1CCC(Oc2cc3c(Nc4cc(OC)c(Cl)cc4OC)ncnc3cc2OC)CC1` [Example 38, 1-(4-(4-(4-chloro-2,5-dimethoxyphenylamino)-7-methoxyquinazolin-6-yloxy)piperidin-1-yl)pro-2-pen-1-one] yielded an IC50 [1] of over 10000 nM and an IC50 [2] of over 10000 nM.
Work on `COC(=O)/C=C\C(=O)N1CC(Oc2cc3c(Nc4cccc(Cl)c4F)ncnc3cc2OC)C1` [Example 30, (Z)-methyl 4-(3-(4-(3-chloro-2-fluorophenylamino)-7-methoxyquinazolin-6-yloxy)azetidin-1-yl)-4-oxobut-2-enoate] yielded an IC50 [1] of 1 nM and an IC50 [2] of 0.6 nM.
Work on `C=CC(=O)N1CC[C@H](Oc2cc3c(Nc4ccc(F)c(Cl)c4)ncnc3cc2OC)C1` [Example 13, 1-((3S)-3-(4-(3-chloro-4-fluorophenylamino)-7-methoxyquinazolin-6-yloxy)pyrrolidin-1-yl)pro-2-pen-1-one] yielded an IC50 [2] of 17 nM.
`COc1cc2ncnc(Nc3ccc(F)c(Cl)c3F)c2cc1OC1CCN(C(=O)/C=C/CN(C)C)CC1` [Example 98, (E)-1-(4-(4-(3-chloro-2,4-difluorophenylamino)-7-methoxyquinazolin-6-yloxy)piperidin-1-yl)-4-(dimethylamino)but-2-en-1-one] showed an IC50 [2] of 45 nM.
In the case of `C=CC(=O)N1CCC(Oc2cc3c(Nc4ccc(OCc5ccccn5)c(Cl)c4)ncnc3cc2OC)CC1` [Example 55, 1-(4-(4-(3-chloro-4-(pyridin-2-ylmethoxy)phenylamino)-7-methoxyquinazolin-6-yloxy)piperidin-1-yl)pro-2-pen-1-one], the IC50 [2] is reported as 2 nM.
